From patent publication US9096607B2, “Tumor necrosis factor inhibitors” (THE TRUSTEES OF THE UNIVERSITY OF PENNSYLVANIA, priority 2005, dated 2015)

Test system: L929 cells
Assay: Inhibition of TNF-α mediated cytolysis of L929 cells (Alamar Blue)
Type: cell-based, murine
Conditions: TNF-α 100 pg/mL, actinomycin D 1 μM; for % Inhibition at: 25 μM: 25 μM compound; for % Inhibition at: 50 μM: 50 μM compound; for % Inhibition at: 100μM: 100 μM compound
Source text: L929 cultured murine fibroblasts cells were obtained from American Type Culture Collection (Manassas, Va.). Tissue culture reagents were from Invitrogen or Sigma-Aldrich. TNF-α and Actinomycin D were from Sigma-Aldrich. Alamar Blue reagents (Cell Titer Blue™) were from Promega. The test compounds I-1 through I-16, II-1 through II-8, and III-1 through III-3 were obtained commercially or can be prepared as described above. The test compounds were individually dissolved in dimethylsulfoxide (DMSO). The test compounds were maintained at 4° C. when not in use. Other reagents were high-purity (ACS-grade, HPLC-grade, MilliQ water, or similar).
Stock L929 cells were grown on tissue culture plastic in complete DMEM (Dulbecco's Modified Eagles Medium) supplemented with 10% FBS (Fetal Bovine Serum), NEAA (non-essential amino acids), and glutamine. L929 cells were plated using the same medium on 96-well tissue culture plates at high density (i.e., ˜4×10^4 cells/well, or similar) before use.
Approximately 20 h after plating, the L929 cells on 96-well plates were re-fed with fresh medium containing one of the test compounds in a concentration selected from 100 μM, 50 μM, 25 μM as a “pre-treatment.” Approximately 30-60 min later, samples were treated with an additional amount of test compound (in the same amount and at the same concentration as the pre-treatment) prepared in medium containing TNF-α (200 pg/mL), and actinomycin D (2 μM). The final concentration of TNF-α in assays was 100 pg/mL. The final concentration of actinomycin D in assays was 1 μM. The plates were incubated for an additional 22-23 h, the Alamar Blue assay reagents were added and metabolic cell viability was determined from reduction of a fluorogenic Alamar Blue derivative.
The temperature was maintained at 37° C. with 5% CO2 and humidified. The metabolic viability was measured 1-2 h after addition of assay reagents/Alamar Blue derivative using TECAN SaFire fluorescence plate reader (Tecan Group Ltd., Maennedorf, Switzerland).
Inhibition of TNF-α induced cytolysis by a test compound (X) at a given concentration (y) was calculated as follows: […]

SMILES	% Inhibition at: 25 μM	% Inhibition at: 50 μM	% Inhibition at: 100μM
CC(=O)Oc1cc2c(cc1Cl)C1(OC(=O)c3ccccc31)c1cc(Cl)c(OC(C)=O)cc1O2 [II-9, 2′,7′-Dichlorofluorescein diacetate]	6.3%	10.5%	22.0%
O=C([O-])c1ccccc1C1c2ccc(O)cc2Oc2cc(O)ccc21.[K+] [II-8, Potassium 2-(3,6-dihydroxy-9H-xanthen-9-yl)-benzoate]	23.6%	24.7%	25.6%
CC(c1ccc(OC(=O)CCl)cc1)(c1ccc(OC(=O)CCl)cc1)c1ccc(OC(=O)CCl)cc1 [Compound I-13, 1,1,1-Tris-(4-chloroacetoxyphenyl)ethane]	35.4%	72.2%	38.9%
O=C(O)c1ccccc1C1c2ccc(O)cc2Oc2cc(O)ccc21 [II-4, 2-(3,6-Dihydroxy-9H-xanthen-9-yl)-benzoic acid]	33.3%	23.6%	23.2%
CC(=O)Oc1ccc(C(C)(c2ccccc2)c2ccc(OC(C)=O)cc2)cc1 [Compound I-10, 1,1-Bis-(4-acetoxyphenyl)-1-phenyl-ethane]	20.7%	46.6%	71.9%
COC(=O)COc1ccc(C(C)(c2ccc(OCC(=O)OC)cc2)c2ccc(OC(C)=O)cc2)cc1 [Compound I-14, 1-(4-Acetoxy-phenyl)-1,1-bis-(4-methoxycarbonylmethoxyphenyl)ethane]	13.4%	30.2%	45.3%
CN(C)c1ccc(C(O)(c2ccccc2)c2ccc(N(C)C)cc2)cc1 [Compound I-17, 1,1-Bis(4-dimethylaminophenyl)-1-phenyl-methanol]	−16.0%	−17.0%	−17.9%
CC(c1ccccc1)(c1ccc(OC(=O)CCl)cc1)c1ccc(OC(=O)CCl)cc1 [Compound I-15, 1,1-Bis-(4-chloroacetoxyphenyl)-1-phenylethane]	29.7%	73.8%	−19.8%
COc1ccc([C+](c2ccc(OC)cc2)c2ccc(OC)cc2)cc1 [Compound I-7, 4,4′,4″-Trimethoxytrityl tetrafluoroborate]	15.1%	30.2%	25.9%
CC(c1ccc(OCC(=O)[O-])cc1)(c1ccc(OCC(=O)[O-])cc1)c1ccc(OCC(=O)[O-])cc1.[Na+].[Na+].[Na+] [Compound I-3, 1,1,1-Tris-(4-carboxymethoxyphenyl)ethane, trisodium salt]	23.0%	17.7%	12.4%
CC(=O)Oc1ccc2c(c1)Oc1cc(OC(C)=O)ccc1C21OC(=O)c2ccccc21 [II-2, 3′,6′-Fluorescein diacetate]	25.4%	23.5%	26.0%
O=C([O-])c1ccccc1C(c1ccc(O)cc1)c1ccc(O)cc1.[K+] [II-7, Potassium 2-[bis-(4-hydroxyphenyl)-methyl]-benzoate]	22.5%	19.1%	13.2%
O=C(O)c1ccccc1C1c2ccc(O)cc2Oc2cc(O)ccc21 [II-5, 2-Hydroxy-1,1-bis-hydroxymethyl-ethyl-ammonium; 2-(3,6-dihydroxy-9H-xanthen-9-yl)-benzoate]	25.1%	16.3%	21.5%
NC(=O)c1ccccc1C1c2ccc(Cl)cc2Oc2cc(Cl)ccc21 [II-6, 2-(3,6-Dichloro-9H-xanthen-9-yl)-benzamide]	43.3%	−6.1%	−21.7%
O=C1OC2(c3ccc(Cl)cc3Oc3cc(Cl)ccc32)c2ccccc21 [II-1, 3′,6′-Dichlorofluorescein]	20.7%	8.8%	7.6%
COc1ccc(C(O)(c2ccc(OC)cc2)c2ccc(OC)cc2)cc1 [Compound I-6, 1,1,1-Tris-(4-methoxyphenyl)methanol]	12.0%	25.9%	32.5%
COc1ccc(C(C(=O)[O-])(c2ccc(OC)cc2)c2ccc(OC)cc2)cc1.[Na+] [Compound I-5, Sodium 1,1,1-tris-(4-methoxyphenyl)acetate]	1.7%	5.0%	12.1%
O=C(O)c1ccccc1C1c2ccc(Cl)cc2Oc2cc(Cl)ccc21 [II-3, 2-(3,6-Dichloro-9H-xanthen-9-yl)-benzoic acid]	36.2%	45.6%	52.4%
O=[N+]([O-])c1cccc(NN=C(c2ccc(Cl)cc2)c2ccc(Cl)cc2)c1 [III-3, N-(4,4′-Dichlorobenzhydrylidene)-N-(3-nitrophenyl)hydrazine]	6.6%	3.4%	8.1%
COC(=O)COc1ccc(C(C)(c2ccc(OCC(=O)OC)cc2)c2ccc(OCC(=O)OC)cc2)cc1 [Compound I-4, 1,1,1-Tris-(4-methoxycarbonylmethoxyphenyl)ethane]	18.4%	27.9%	−11.6%
CC(=O)Oc1ccc(C2(c3ccc(OC(C)=O)cc3)C(=O)Nc3ccccc32)cc1 [Compound I-16, 3,3-Bis[4-(acetyloxy)phenyl]-1,3-dihydro-2H-indol-2-one]	4.3%	11.5%	17.1%
CN(C)c1ccc(C(O)(c2ccc(N(C)C)cc2)c2ccc(N(C)C)cc2)cc1 [Compound I-1, 1,1,1-Tris-(4-dimethylaminophenyl)methanol]	44.0%	63.3%	40.9%
CC(c1ccc(O)cc1)(c1ccc(OCC(=O)O)cc1)c1ccc(OCC(=O)O)cc1.[Na+].[Na+].[Na+] [Compound I-12, 1,1-Bis-(4-carboxymethoxy-phenyl)-1-(4-hydroxyphenyl)ethane, trisodium salt]	14.5%	16.9%	14.2%
CC(=O)Oc1ccc(C(=NNc2cccc([N+](=O)[O-])c2)c2ccc(OC(C)=O)cc2)cc1 [III-2, 4,4′-Diacetoxybenzophenone-3-nitrophenylhydrazone]	26.9%	42.0%	−19.8%
O=[N+]([O-])c1cccc(NN=C(c2ccc(O)cc2)c2ccc(O)cc2)c1 [III-1, N-(4,4′-Dihydroxybenzhydrylidene)-N′-(3-nitrophenyl)hydrazine]	33.2%	42.5%	−20.3%
COc1ccc(C(C(=O)O)(c2ccc(OC)cc2)c2ccc(OC)cc2)cc1 [Compound I-8, 1,1,1-Tris-(4-methoxyphenyl)acetic acid]	2.7%	6.9%	18.4%
COC(=O)COc1ccc(C(C)(c2ccc(O)cc2)c2ccc(O)cc2)cc1 [Compound I-11, 1,1-Bis-(4-hydroxyphenyl)-1-(4-methoxycarbonylmethoxyphenyl)ethane]	13.9%	36.7%	14.8%
Cc1cc(C(C)(c2ccc(O)cc2)c2cc(C)c(N)c(C)c2)cc(C)c1N [Compound I-18, 1,1-Bis(4-amino-3,5-dimethylphenyl)-1-(4-hydroxyphenyl)-ethane]	22.6%	36.6%	53.8%
